Assay results published in PubChem BioAssay (NCI).
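Briefly, cells in 96-well plates were exposed to five compound concentrations for 48 h, and endpoints were estimated by linear interpolation. Here, GI50 denotes the concentration required for 50% inhibition of growth. Definition used: TGI = concentration required for complete inhibition of growth.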

How the values were obtained:
Assay in all cases: NCI anticancer screen, dose series, 48 h
OVCAR-4 ovarian = system: OVCAR-4 ovarian
HL-60(TB) leukemia = system: HL-60(TB) leukemia
NCI-H522 lung = system: NCI-H522 lung
CAKI-1 renal = system: CAKI-1 renal
NCI-H226 lung = system: NCI-H226 lung
OVCAR-3 ovarian = system: OVCAR-3 ovarian
NCI/ADR-RES ovarian = system: NCI/ADR-RES ovarian
MALME-3M melanoma = system: MALME-3M melanoma

Compound | GI50 (OVCAR-4 ovarian) [µM] | TGI (OVCAR-4 ovarian) [µM] | GI50 (HL-60(TB) leukemia) [µM] | TGI (HL-60(TB) leukemia) [µM] | GI50 (NCI-H522 lung) [µM] | TGI (NCI-H522 lung) [µM] | GI50 (CAKI-1 renal) [µM] | TGI (CAKI-1 renal) [µM] | GI50 (NCI-H226 lung) [µM] | TGI (NCI-H226 lung) [µM] | GI50 (OVCAR-3 ovarian) [µM] | TGI (OVCAR-3 ovarian) [µM] | GI50 (NCI/ADR-RES ovarian) [µM] | TGI (NCI/ADR-RES ovarian) [µM] | GI50 (MALME-3M melanoma) [µM] | TGI (MALME-3M melanoma) [µM]
COc1cc(/C=C/C(=O)c2ccc(F)cc2)ccc1OCCCN1CCN(CC(=O)Nc2ccc(Cl)cc2C(=O)c2ccccc2Cl)CC1 | 9.48 | 34.5 | 4.23 | 25.9 | 14.4 | 33.7 | 11 | 32.5 | 18.4 | 37.2 | 11.3 | 27.2 | 13 | > 100 | 4.23 | 15.7
Cc1[nH]c(=O)nc(Nc2ccc(Cl)cc2)c1C(=O)N1CCN(CCO)CC1 | > 100 | > 100 | > 100 | > 100 | 59.8 | > 100 | > 100 | > 100 | > 100 | > 100 | > 100 | > 100 | > 100 | > 100 | 29.9 | > 100
CN(C)C(=O)c1cnc2oc3ccc(O)cc3c2c1-c1ccccc1 | – | – | > 25 | > 25 | > 25 | > 25 | > 25 | > 25 | – | – | > 25 | > 25 | > 25 | > 25 | – | –
COc1cnc2c(c1)C(=O)c1c-2n(CCCNC2=NCCS2)c(=O)c2cc(Cl)ccc12 | 1.42 | 2.95 | 0.656 | 3.39 | – | – | 0.0444 | 1.6 | 0.687 | 2.29 | 1.35 | 3.07 | – | – | – | –
Cc1ccc(C(=O)NC2CCC2)cc1-c1ccc(C(=O)NCC2CC2)cc1 | > 25 | > 25 | > 25 | > 25 | > 25 | > 25 | > 25 | > 25 | > 25 | > 25 | > 25 | > 25 | > 25 | > 25 | > 25 | > 25
NCCN.O=C([O-])CN1CCOCC1.[OH-].[Pt+4] | > 100 | > 100 | 15.8 | > 100 | > 100 | > 100 | > 100 | > 100 | > 100 | > 100 | > 100 | > 100 | > 100 | > 100 | > 100 | > 100
Cc1nn(-c2ccc(Cl)cc2)c2nc3c(nc12)C(=O)C(=O)c1ccccc1-3 | 6.08 | > 100 | 4.32 | > 100 | 2.96 | 6.57 | 7.93 | > 100 | 7.65 | 30.1 | 3.48 | > 100 | 3.92 | > 100 | 1.43 | 3.86
COc1cc([N+](=O)[O-])c(OC)cc1-c1nc2sccn2c1/C=N/N=C(N)N | 52.2 | > 100 | – | – | 21 | > 100 | 22.9 | 66.3 | – | – | 14.6 | 66.5 | 51.1 | > 100 | 11 | 40.7
C=C1c2ccoc2C[C@H]2[C@H]1CC[C@@]1(O)[C@@](C)(C(=O)OC)CCC[C@]21C | 86.5 | > 100 | – | – | 17.5 | 54 | 50.2 | > 100 | 18.1 | 56.2 | 17.4 | 43.3 | 42.5 | > 100 | 22.1 | 56.2
COC(=O)c1cc2ccccc2c2c3c(ccc12)OCO3 | 22.3 | 133 | – | > 1000 | – | – | 278 | > 1000 | 26.4 | 146 | 68.7 | 700 | 54.4 | > 1000 | 76.6 | 483
O=C(O)c1nc(-c2ccc(Cl)c(Cl)c2)nc2ccc(Cl)cc12 | – | – | – | 54.2 | – | – | – | > 100 | – | – | – | > 100 | – | – | – | > 100
COc1cc(OC)c(C(=O)/C=C/c2cccc(C#N)c2)c(OC)c1 | 2.03 | 10 | – | – | 0.992 | 2.94 | 2.03 | 7.16 | 1.28 | 4.56 | 1.75 | 6.74 | 1.44 | 10.5 | 1.76 | 8.13
Cc1cn2c(/C=C3/C(=O)Nc4ccc(O)cc43)c(C)nc2s1 | > 51.4 | > 100 | – | – | 0.773 | > 29.3 | 3.28 | 19.8 | 4.91 | 39.8 | 0.486 | > 22.6 | 20.9 | > 70.6 | 0.946 | 19.5
Cc1[nH]c2ccc(F)cc2c1-c1nc2c3cccnc3c3ncccc3c2[nH]1 | 0.0966 | > 100 | 0.241 | – | – | – | 0.358 | > 100 | 0.351 | > 100 | 0.268 | > 100 | – | – | 0.283 | > 100
[O-]c1ccccc1/C=N/C(/N=C/c1ccccc1[O-])c1ccccc1O.[O-]c1ccccc1/C=N/C(/N=C/c1ccccc1[O-])c1ccccc1O.[Zr+4] | 26.1 | > 100 | 30.6 | > 100 | 10.9 | 65.3 | – | – | – | – | – | – | > 100 | > 100 | – | –
O=S(=O)(c1cccc2c(I)cccc12)N1CCCNCC1 | 18.6 | 38.4 | 14.2 | 43.4 | 14.8 | 30.3 | 19.2 | 37.8 | 17.8 | 34.8 | 18.7 | 43.3 | 20.2 | 43.5 | – | –
O=[N+]([O-])c1cc(Cl)cnc1Br | – | 3.82 | – | 9.11 | – | – | – | – | – | 6.62 | – | 6.2 | – | 6.72 | – | 49.7
